Measured values: ChEMBL document CHEMBL5360571, “Design, synthesis and in vitro/in vivo anticancer activity of tranylcypromine-based triazolopyrimidine analogs as novel LSD1 inhibitors” (Eur J Med Chem, 2023)

What was measured:
NCI-H1650 [1] = assay: Antitumor activity against human NCI-H1650 cells xenografted in mouse assessed as reduction of tumor weight at 10 mg/kg, po for 21 days relative to control; type: ADME, organism-based; parameters: scale not given: the % may be the effect or the level left; details: in vivo, 504 h, time 21 day
PC-3 = assay: cells; details: Homo sapiens, PC-3, 72 h
Description: Antiproliferative activity against human PC-3 cells incubated for 72 hrs by MTT assay

NCI-H1650 [2] = assay: Induction of apoptosis in human NCI-H1650 cells assessed as apoptotic cells measured at 4 uM for 24 hrs by annexin V-PI staining based flow cytometric analysis (reference value: 12.7%); type: functional
NCI-H1650 [3] = assay: Induction of apoptosis in human NCI-H1650 cells assessed as late apoptotic cells measured at 1 uM for 24 hrs by annexin V-PI staining based flow cytometric analysis (reference value: 1.46%); type: functional
NCI-H1650 [4] = assay: Induction of cell cycle arrest in human NCI-H1650 cells assessed as accumulation of cells in G2 phase measured at 1 uM for 24 hrs by annexin V-PI staining based flow cytometric analysis (reference value: 18.00%); type: functional
NCI-H1650 [5] = assay: Induction of apoptosis in human NCI-H1650 cells assessed as necrotic cells measured at 2 uM for 24 hrs by annexin V-PI staining based flow cytometric analysis (reference value: 0.008%); type: functional
SGC-7901 = assay: cells; details: Homo sapiens, SGC-7901, 72 h
Description: Antiproliferative activity against human SGC-7901 cells incubated for 72 hrs by MTT assay

NCI-H1650 [6] = assay: Induction of cell cycle arrest in human NCI-H1650 cells assessed as accumulation of cells in G1 phase measured at 1 uM for 24 hrs by annexin V-PI staining based flow cytometric analysis (reference value: 52.04%); type: functional
NCI-H1650 [7] = assay: Induction of apoptosis in human NCI-H1650 cells assessed as necrotic cells measured at 4 uM for 24 hrs by annexin V-PI staining based flow cytometric analysis (reference value: 0.008%); type: functional
NCI-H1650 [8] = assay: Induction of apoptosis in human NCI-H1650 cells assessed as necrotic cells measured at 1 uM for 24 hrs by annexin V-PI staining based flow cytometric analysis (reference value: 0.008%); type: functional
NCI-H1650 [9] = assay: Induction of apoptosis in human NCI-H1650 cells assessed as late apoptotic cells measured at 2 uM for 24 hrs by annexin V-PI staining based flow cytometric analysis (reference value: 1.46%); type: functional
[10] = Toxicity in mouse xenografted with human NCI-H1650 cells assessed as change in body weight at 10 to 20 mg/kg, po measured every 4 days for 21 days; type: organism-based; details: in vivo, 504 h, dose 10-20 mg/kg, time 21 day
NCI-H1650 [11] = assay: Induction of cell cycle arrest in human NCI-H1650 cells assessed as accumulation of cells in S phase measured at 1 uM for 24 hrs by annexin V-PI staining based flow cytometric analysis (reference value: 29.97%); type: functional
A549 = assay: cells; details: Homo sapiens, A549, 72 h
Description: Antiproliferative activity against human A549 cells incubated for 72 hrs by MTT assay

ECa-109 cell line = assay: cells; details: Homo sapiens, ECa-109, 72 h
Description: Antiproliferative activity against human EC109 cells incubated for 72 hrs by MTT assay

NCI-H1650 [12] = assay: Induction of apoptosis in human NCI-H1650 cells assessed as apoptotic cells measured at 1 uM for 24 hrs by annexin V-PI staining based flow cytometric analysis (reference value: 12.7%); type: functional
MGC-803 [13] = assay: cells; details: Homo sapiens, MGC-803, 72 h
Description: Antiproliferative activity against human MGC-803 cells incubated for 72 hrs by MTT assay

NCI-H1650 [14] = assay: Induction of apoptosis in human NCI-H1650 cells assessed as early apoptotic cells measured at 4 uM for 24 hrs by annexin V-PI staining based flow cytometric analysis (reference value: 11.2%); type: functional
NCI-H1650 [15] = assay: Induction of apoptosis in human NCI-H1650 cells assessed as viable cells measured at 2 uM for 24 hrs by annexin V-PI staining based flow cytometric analysis (reference value: 87.4%); type: functional; details: read-out: Activity
MCF7 = assay: cells; details: Homo sapiens, MCF7, 72 h
Description: Antiproliferative activity against human MCF7 cells incubated for 72 hrs by MTT assay

NCI-H1650 [16] = assay: Induction of apoptosis in human NCI-H1650 cells assessed as early apoptotic cells measured at 2 uM for 24 hrs by annexin V-PI staining based flow cytometric analysis (reference value: 11.2%); type: functional
NCI-H1650 [17] = assay: cells; details: Homo sapiens, NCI-H1650, 72 h
Description: Antiproliferative activity against human NCI-H1650 cells incubated for 72 hrs by MTT assay

[18] = molecular target: T1, MAO-B (amine oxidase [flavin-containing] B) (Homo sapiens, UniProt P27338); assay: Inhibition of recombinant MAO-B (unknown origin) using luciferin derivative as substrate measured at 1 uM for 60 mins by plate reader analysis relative to control; details: probe luciferin derivative
T1 sequence (P27338 whole entry): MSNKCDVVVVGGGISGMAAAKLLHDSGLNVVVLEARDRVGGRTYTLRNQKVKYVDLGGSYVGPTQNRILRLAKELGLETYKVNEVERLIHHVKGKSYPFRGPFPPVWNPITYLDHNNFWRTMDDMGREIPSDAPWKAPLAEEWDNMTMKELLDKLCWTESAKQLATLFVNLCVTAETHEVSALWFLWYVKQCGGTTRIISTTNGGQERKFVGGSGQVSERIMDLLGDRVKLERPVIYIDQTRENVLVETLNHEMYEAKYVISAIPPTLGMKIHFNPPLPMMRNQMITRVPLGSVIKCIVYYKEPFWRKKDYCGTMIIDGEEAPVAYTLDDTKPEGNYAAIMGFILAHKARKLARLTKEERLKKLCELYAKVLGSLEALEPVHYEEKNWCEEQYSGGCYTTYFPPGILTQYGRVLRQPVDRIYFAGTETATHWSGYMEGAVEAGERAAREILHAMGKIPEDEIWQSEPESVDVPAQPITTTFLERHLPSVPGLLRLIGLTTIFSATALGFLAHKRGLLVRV

NCI-H1650 [19] = assay: Induction of cell cycle arrest in human NCI-H1650 cells assessed as accumulation of cells in G2 phase measured at 2 uM for 24 hrs by annexin V-PI staining based flow cytometric analysis (reference value: 18.00%); type: functional
[20] = molecular target: T2, MAO-A (amine oxidase [flavin-containing] A) (Homo sapiens, UniProt P21397); assay: Inhibition of recombinant MAO-A (unknown origin) using luciferin derivative as substrate measured at 1 uM for 60 mins by plate reader analysis relative to control; details: probe luciferin derivative
T2 sequence (P21397 whole entry): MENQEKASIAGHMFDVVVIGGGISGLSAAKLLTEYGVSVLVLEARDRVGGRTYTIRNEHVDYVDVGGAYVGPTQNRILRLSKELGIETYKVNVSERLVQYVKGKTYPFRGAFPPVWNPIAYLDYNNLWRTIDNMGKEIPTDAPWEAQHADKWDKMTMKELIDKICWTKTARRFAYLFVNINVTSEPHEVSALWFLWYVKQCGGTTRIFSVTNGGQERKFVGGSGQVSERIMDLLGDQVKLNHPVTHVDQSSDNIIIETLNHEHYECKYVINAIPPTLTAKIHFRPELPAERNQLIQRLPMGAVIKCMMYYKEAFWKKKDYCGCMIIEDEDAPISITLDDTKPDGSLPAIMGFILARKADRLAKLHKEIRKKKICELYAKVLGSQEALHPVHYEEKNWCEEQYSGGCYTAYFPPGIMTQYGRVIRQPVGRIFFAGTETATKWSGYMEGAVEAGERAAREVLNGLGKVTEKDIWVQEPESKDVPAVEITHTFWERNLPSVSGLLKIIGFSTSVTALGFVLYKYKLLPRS

NCI-H1650 [21] = assay: Induction of cell cycle arrest in human NCI-H1650 cells assessed as accumulation of cells in G1 phase measured at 2 uM for 24 hrs by annexin V-PI staining based flow cytometric analysis (reference value: 52.04%); type: functional
NCI-H1650 [22] = assay: Induction of cell cycle arrest in human NCI-H1650 cells assessed as accumulation of cells in S phase measured at 2 uM for 24 hrs by annexin V-PI staining based flow cytometric analysis (reference value: 29.97%); type: functional
NCI-H1650 [23] = assay: Induction of apoptosis in human NCI-H1650 cells assessed as viable cells measured at 4 uM for 24 hrs by annexin V-PI staining based flow cytometric analysis (reference value: 87.4%); type: functional; details: read-out: Activity
NCI-H460 = assay: cells; details: Homo sapiens, NCI-H460, 72 h
Description: Antiproliferative activity against human NCI-H460 cells incubated for 72 hrs by MTT assay

NCI-H1650 [24] = assay: Induction of apoptosis in human NCI-H1650 cells assessed as early apoptotic cells measured at 1 uM for 24 hrs by annexin V-PI staining based flow cytometric analysis (reference value: 11.2%); type: functional
NCI-H1650 [25] = assay: Antitumor activity against human NCI-H1650 cells xenografted in mouse assessed as reduction of tumor weight at 20 mg/kg, po for 21 days relative to control; type: ADME, organism-based; parameters: scale not given: the % may be the effect or the level left; details: in vivo, 504 h, time 21 day
NCI-H1650 [26] = assay: Induction of cell cycle arrest in human NCI-H1650 cells assessed as accumulation of cells in S phase measured at 4 uM for 24 hrs by annexin V-PI staining based flow cytometric analysis (reference value: 29.97%); type: functional
NCI-H1650 [27] = assay: Induction of cell cycle arrest in human NCI-H1650 cells assessed as accumulation of cells in G1 phase measured at 4 uM for 24 hrs by annexin V-PI staining based flow cytometric analysis (reference value: 52.04%); type: functional
[28] = Toxicity in mouse xenografted with human NCI-H1650 cells assessed as increase in survival rate at 10 to 20 mg/kg, po treated for 21 days measured every 10 days for 50 days; type: organism-based; details: in vivo, 504 h, dose 10-20 mg/kg, time 21 day
NCI-H1650 [29] = assay: Induction of cell cycle arrest in human NCI-H1650 cells assessed as accumulation of cells in G2 phase measured at 4 uM for 24 hrs by annexin V-PI staining based flow cytometric analysis (reference value: 18.00%); type: functional
GES1 = assay: cells; details: Homo sapiens, GES1, 72 h
Description: Antiproliferative activity against human GES1 cells incubated for 72 hrs by MTT assay

NCI-H1650 [30] = assay: Induction of apoptosis in human NCI-H1650 cells assessed as apoptotic cells measured at 2 uM for 24 hrs by annexin V-PI staining based flow cytometric analysis (reference value: 12.7%); type: functional
NCI-H1650 [31] = assay: Induction of apoptosis in human NCI-H1650 cells assessed as viable cells measured at 1 uM for 24 hrs by annexin V-PI staining based flow cytometric analysis (reference value: 87.4%); type: functional; details: read-out: Activity
NCI-H1650 [32] = assay: Induction of apoptosis in human NCI-H1650 cells assessed as late apoptotic cells measured at 4 uM for 24 hrs by annexin V-PI staining based flow cytometric analysis (reference value: 1.46%); type: functional
MGC-803 [33] = assay: cells; details: Homo sapiens, MGC-803, 72 h; remark: listed apart in the source
Description: Antiproliferative activity against human MGC-803 LSD knock out cells incubated for 72 hrs by MTT assay

Q: With `CCCSc1nc(Oc2c(OC)cc(CN[C@@H]3C[C@H]3c3ccccc3)cc2OC)c2nnn(Cc3cccc(Cl)c3)c2n1` as the compound, how does the Activity (NCI-H1650 [1]) read?
A: Its Activity is 41.5%.

Q: And the IC50 (PC-3)?
A: Its IC50 is 7.5 µM.

Q: And the Activity (NCI-H1650 [2])?
A: Its Activity is 45.7%.

Q: And the Activity (NCI-H1650 [3])?
A: Its Activity is 3.6%.

Q: And the Activity (NCI-H1650 [4])?
A: Its Activity is 15.24%.

Q: What about the Activity (NCI-H1650 [5]) of the same compound?
A: Its Activity is 0.138%.

Q: What about the IC50 (SGC-7901) of the same compound?
A: The IC50 was 9.5 µM.

Q: What about the Activity (NCI-H1650 [6]) of the same compound?
A: Its Activity is 51.44%.

Q: And the Activity (NCI-H1650 [7])?
A: The Activity was 0.041%.

Q: And the Activity (NCI-H1650 [8])?
A: The Activity was 0.022%.

Q: What about the Activity (NCI-H1650 [9]) of the same compound?
A: Its Activity is 6.02%.

Q: And the Activity [10]?
A: The Activity was “Non-Toxic”.

Q: What about the Activity (NCI-H1650 [11]) of the same compound?
A: Its Activity is 33.32%.

Q: What about the IC50 (A549) of the same compound?
A: Its IC50 is 7.9 µM.

Q: What about the IC50 (ECa-109 cell line) of the same compound?
A: Its IC50 is 15.2 µM.

Q: And the Activity (NCI-H1650 [12])?
A: Its Activity is 43.9%.

Q: What about the IC50 (MGC-803 [13]) of the same compound?
A: Its IC50 is 5.1 µM.

Q: And the Activity (NCI-H1650 [14])?
A: Its Activity is 38.4%.

Q: What about the viability at 2 µM (NCI-H1650 [15]) of the same compound?
A: The viability at 2 µM was 55.4%.

Q: What about the IC50 (MCF7) of the same compound?
A: The IC50 was 13.4 µM.

Q: What about the Activity (NCI-H1650 [16]) of the same compound?
A: The Activity was 38.5%.

Q: And the IC50 (NCI-H1650 [17])?
A: The IC50 was 4.3 µM.

Q: And the inhibition at 1 h, 1 µM [18]?
A: Its inhibition at 1 h, 1 µM is 52%.

Q: And the Activity (NCI-H1650 [19])?
A: Its Activity is 10.6%.

Q: And the inhibition at 1 h, 1 µM [20]?
A: The inhibition at 1 h, 1 µM was 25.5%.

Q: What about the Activity (NCI-H1650 [21]) of the same compound?
A: Its Activity is 49.59%.

Q: And the Activity (NCI-H1650 [22])?
A: Its Activity is 39.81%.

Q: And the viability at 4 µM (NCI-H1650 [23])?
A: Its viability at 4 µM is 54.3%.

Q: And the IC50 (NCI-H460)?
A: The IC50 was 13.6 µM.

Q: And the Activity (NCI-H1650 [24])?
A: Its Activity is 40.3%.

Q: And the Activity (NCI-H1650 [25])?
A: The Activity was 64%.

Q: What about the Activity (NCI-H1650 [26]) of the same compound?
A: The Activity was 43.26%.

Q: And the Activity (NCI-H1650 [27])?
A: Its Activity is 48.98%.

Q: And the Activity [28]?
A: The Activity was “Non-Toxic”.

Q: What about the Activity (NCI-H1650 [29]) of the same compound?
A: Its Activity is 7.76%.

Q: And the IC50 (GES1)?
A: The IC50 was > 20 µM.

Q: What about the Activity (NCI-H1650 [30]) of the same compound?
A: Its Activity is 44.5%.

Q: And the viability at 1 µM (NCI-H1650 [31])?
A: Its viability at 1 µM is 56.1%.

Q: And the Activity (NCI-H1650 [32])?
A: The Activity was 7.32%.

Q: And the IC50 (MGC-803 [33])?
A: Its IC50 is > 20 µM.
